Experimental data published in PubChem BioAssay (NCI).
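Values below derive from 48-hour exposures of cells grown in 96-well plates, with endpoints linearly interpolated between the two concentrations bracketing the appropriate inhibition level. GI50 marks 50% less growth. TGI: concentration producing complete growth inhibition.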

Legend:
Test in all cases: NCI tumour cell line growth inhibition, 48 h
[1] = system: 786-0 renal
[2] = system: A498 renal
[3] = system: A549 NSCLC
[4] = system: ACHN renal
[5] = system: BT-549 breast
[6] = system: CAKI-1 renal
[7] = system: COLO 205 colon
[8] = system: DU-145 prostate
[9] = system: HCC-2998 colon
[10] = system: HCT-116 colon
[11] = system: HCT-15 colon
[12] = system: HL-60(TB) leukemia
[13] = system: HOP-62 NSCLC
[14] = system: HOP-92 NSCLC
[15] = system: HS 578T breast
[16] = system: HT29 colon
[17] = system: IGROV1 ovarian
[18] = system: K-562 leukemia
[19] = system: KM12 colon
[20] = system: LOX IMVI melanoma
[21] = system: M14 melanoma
[22] = system: MALME-3M melanoma
[23] = system: MCF7 breast
[24] = system: MDA-MB-231 breast
[25] = system: MDA-MB-435
[26] = system: MOLT-4 leukemia
[27] = system: NCI-H226 lung
[28] = system: NCI-H23 lung
[29] = system: NCI-H460 lung
[30] = system: NCI-H522 lung
[31] = system: NCI/ADR-RES ovarian
[32] = system: OVCAR-3 ovarian
[33] = system: OVCAR-4 ovarian
[34] = system: OVCAR-5 ovarian
[35] = system: OVCAR-8 ovarian
[36] = system: PC-3 prostate
[37] = system: RPMI-8226 leukemia
[38] = system: RXF 393 renal
[39] = system: SF-268 CNS
[40] = system: SF-295 CNS
[41] = system: SF-539 CNS
[42] = system: SK-MEL-2 melanoma
[43] = system: SK-MEL-28 melanoma
[44] = system: SK-MEL-5 melanoma
[45] = system: SK-OV-3 ovarian
[46] = system: SN12C renal
[47] = system: SNB-19 CNS
[48] = system: SNB-75 CNS
[49] = system: SR leukemia
[50] = system: SW-620 colon
[51] = system: T-47D breast
[52] = system: TK-10 renal
[53] = system: U251 CNS
[54] = system: UACC-257 melanoma
[55] = system: UACC-62 melanoma
[56] = system: UO-31 renal

COc1cc(-c2nn(-c3cccc(NC(=O)Nc4cccc(C(F)(F)F)c4)c3)cc2-c2ccncc2)ccc1Cl
GI50 [1]: 1120 nM
TGI [1]: 3170 nM
GI50 [2]: 609 nM
TGI [2]: 3030 nM
GI50 [3]: 723 nM
TGI [3]: 14500 nM
GI50 [4]: 371 nM
TGI [4]: 13600 nM
GI50 [5]: 1230 nM
TGI [5]: 4030 nM
GI50 [6]: 952 nM
TGI [6]: 3100 nM
GI50 [7]: 588 nM
TGI [7]: 1430 nM
GI50 [8]: 1360 nM
TGI [8]: 22800 nM
GI50 [9]: 1380 nM
TGI [9]: 4710 nM
GI50 [10]: 608 nM
TGI [10]: 6090 nM
GI50 [11]: 957 nM
TGI [11]: 10800 nM
GI50 [12]: 756 nM
TGI [12]: 10100 nM
GI50 [13]: 923 nM
TGI [13]: 2880 nM
GI50 [14]: 251 nM
TGI [14]: 921 nM
GI50 [15]: 1360 nM
TGI [15]: 16600 nM
GI50 [16]: 775 nM
TGI [16]: 2090 nM
GI50 [17]: 920 nM
TGI [17]: 3240 nM
GI50 [18]: 386 nM
TGI [18]: 12100 nM
GI50 [19]: 422 nM
TGI [19]: 2020 nM
GI50 [20]: 789 nM
TGI [20]: 1650 nM
GI50 [21]: 759 nM
TGI [21]: 2160 nM
GI50 [22]: 845 nM
TGI [22]: 2180 nM
GI50 [23]: 609 nM
TGI [23]: 4700 nM
GI50 [24]: 813 nM
TGI [24]: 2230 nM
GI50 [25]: 794 nM
TGI [25]: 1980 nM
GI50 [26]: 936 nM
TGI [26]: 3480 nM
GI50 [27]: 1210 nM
TGI [27]: 14800 nM
GI50 [28]: 769 nM
TGI [28]: 3020 nM
GI50 [29]: 478 nM
TGI [29]: 2280 nM
GI50 [30]: 451 nM
TGI [30]: 1870 nM
GI50 [31]: 696 nM
TGI [31]: 3580 nM
GI50 [32]: 343 nM
TGI [32]: 1590 nM
GI50 [33]: 996 nM
TGI [33]: 13800 nM
GI50 [34]: 1520 nM
TGI [34]: 8410 nM
GI50 [35]: 739 nM
TGI [35]: 2700 nM
GI50 [36]: 244 nM
TGI [36]: 1550 nM
GI50 [37]: 241 nM
TGI [37]: 1830 nM
GI50 [38]: 798 nM
TGI [38]: 1950 nM
GI50 [39]: 1280 nM
TGI [39]: 5010 nM
GI50 [40]: 229 nM
TGI [40]: 926 nM
GI50 [41]: 958 nM
TGI [41]: 2560 nM
GI50 [42]: 935 nM
TGI [42]: 1940 nM
GI50 [43]: 1060 nM
TGI [43]: 3910 nM
GI50 [44]: 622 nM
TGI [44]: 1270 nM
GI50 [45]: 1700 nM
TGI [45]: 15400 nM
GI50 [46]: 817 nM
TGI [46]: 10500 nM
GI50 [47]: 999 nM
TGI [47]: 6260 nM
GI50 [48]: 1130 nM
TGI [48]: 4100 nM
GI50 [49]: 858 nM
TGI [49]: 2620 nM
GI50 [50]: 767 nM
TGI [50]: 9430 nM
GI50 [51]: 638 nM
TGI [51]: 11400 nM
GI50 [52]: 1060 nM
TGI [52]: 9260 nM
GI50 [53]: 467 nM
TGI [53]: 1230 nM
GI50 [54]: 746 nM
TGI [54]: 2090 nM
GI50 [55]: 627 nM
TGI [55]: 1480 nM
GI50 [56]: 747 nM
TGI [56]: 3040 nM
